Where “and” joins values, the source holds several entries; their conditions need not be identical. Equal values may be shown once. Toxic doses and inconclusive results are not listed. How the source made its calls: active means survival T/C of 150% or more; inactive means T/C below 125% in these data.
Tested on: P388 leukemia ip, CD2F1 mice, survival T/C
Experiment: NCI In Vivo Anticancer Drug Screen. Data for tumor model P388 Leukemia (intraperitoneal) in CD2F1 (CDF1) mice
Settings: endpoint: median survival time, higher = longer survival
Method in brief: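 Mice carrying the transplanted tumor received test compound or vehicle. Survival was recorded in each group, and the value is the treated-group measurement divided by that of the vehicle-treated control group.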

[1] = dose: 50.0 mg/kg/injection, schedule: Q01DX005 (ip), vehicle: saline with Tween-80
[2] = dose: 100.0 mg/kg/injection, schedule: Q01DX005 (ip), vehicle: saline with Tween-80
[3] = dose: 200.0 mg/kg/injection, schedule: Q01DX005 (ip), vehicle: saline with Tween-80
[4] = dose: 50.0 mg/kg/injection, schedule: Q04DX003 (ip), vehicle: saline
[5] = dose: 100.0 mg/kg/injection, schedule: Q04DX003 (ip), vehicle: saline
[6] = dose: 50.0 mg/kg/injection, schedule: Q01DX009 (ip), vehicle: saline with Tween-80
[7] = dose: 100.0 mg/kg/injection, schedule: Q01DX009 (ip), vehicle: saline with Tween-80
[8] = dose: 200.0 mg/kg/injection, schedule: Q01DX009 (ip), vehicle: saline with Tween-80
[9] = dose: 100.0 mg/kg/injection, schedule: Q04DX002 (ip), vehicle: saline with Tween-80
[10] = dose: 200.0 mg/kg/injection, schedule: Q04DX002 (ip), vehicle: saline with Tween-80
[11] = dose: 400.0 mg/kg/injection, schedule: Q04DX002 (ip), vehicle: saline with Tween-80
[12] = dose: 50.0 mg/kg/injection, schedule: Q01DX005 (ip), vehicle: Klucel (hydroxypropylcellulose) (HPC)
[13] = dose: 100.0 mg/kg/injection, schedule: Q01DX005 (ip), vehicle: Klucel (hydroxypropylcellulose) (HPC)

Measured: T/C

CC(=O)C(=C/C=C/c1ccccc1)C(C)=O
inactive: [1] 90 % of control | [2] 98 % of control | [3] 100 % of control

[O-]c1nn(-c2ccccc2)n[n+]1-c1ccccc1
inactive: dose: 100.0 mg/kg/injection, schedule: Q01DX001 (ip), vehicle: Klucel (hydroxypropylcellulose) (HPC) 97 % of control | dose: 200.0 mg/kg/injection, schedule: Q01DX001 (ip), vehicle: Klucel (hydroxypropylcellulose) (HPC) 100 % of control | dose: 400.0 mg/kg/injection, schedule: Q01DX001 (ip), vehicle: Klucel (hydroxypropylcellulose) (HPC) 94 % of control

Cc1ncc([N+](=O)[O-])n1CCSC(Cl)(Cl)Cl
inactive: dose: 12.5 mg/kg/injection, schedule: Q04DX003 (ip), vehicle: saline 99 % of control and 112 % of control | dose: 25.0 mg/kg/injection, schedule: Q04DX003 (ip), vehicle: saline 102 % of control and 111 % of control | [4] 112 % of control and 118 % of control | [5] 112 % of control and 89 % of control

Clc1c(-c2ccccc2)oc2nc3ccccc3nc12
inactive: dose: 60.0 mg/kg/injection, schedule: Q01DX005 (ip), vehicle: saline with Tween-80 116 % of control | dose: 120.0 mg/kg/injection, schedule: Q01DX005 (ip), vehicle: saline with Tween-80 110 % of control | dose: 240.0 mg/kg/injection, schedule: Q01DX005 (ip), vehicle: saline with Tween-80 111 % of control

Sc1cn2ccccc2n1
inactive: [4] 105 % of control | [5] 97 % of control | dose: 200.0 mg/kg/injection, schedule: Q04DX003 (ip), vehicle: saline 103 % of control

CN(C)c1ccc(C=C2c3ccccc3C(=O)c3ccccc32)c(Cl)c1
inactive: [6] 100 % of control | [7] 91 % of control | [8] 94 % of control

CCCCCC1NC(C(=O)O)CS1 (centres undefined)
inactive: dose: 50.0 mg/kg/injection, schedule: Q01DX009 (ip), vehicle: suspension in saline 88 % of control | dose: 100.0 mg/kg/injection, schedule: Q01DX009 (ip), vehicle: suspension in saline 94 % of control | dose: 200.0 mg/kg/injection, schedule: Q01DX009 (ip), vehicle: suspension in saline 102 % of control

CC1CC[N-]C(N)C1.CC1CC[N-]C(N)C1.[Cl][Pt+2][Cl] (centres undefined)
inactive: dose: 100.0 mg/kg/injection, schedule: Q01DX001 (sc), vehicle: olive oil, sesame oil, peanut oil 106 % of control | dose: 200.0 mg/kg/injection, schedule: Q01DX001 (sc), vehicle: olive oil, sesame oil, peanut oil 106 % of control | dose: 400.0 mg/kg/injection, schedule: Q01DX001 (sc), vehicle: olive oil, sesame oil, peanut oil 107 % of control

CCOc1cccc2c1C(O)(C#Cc1ccccc1)c1cccc(OCC)c1C2(O)C#Cc1ccccc1 (centres undefined)
inactive: [9] 87 % of control | [10] 87 % of control | [11] 91 % of control

CCC1OCCN1C(C)C (centres undefined)
inactive: dose: 100.0 mg/kg/injection, schedule: Q04DX003 (ip), vehicle: saline with Tween-80 104 % of control | dose: 200.0 mg/kg/injection, schedule: Q04DX003 (ip), vehicle: saline with Tween-80 100 % of control

O=C(Nc1ccccc1)/C(N=Nc1ccc([N+](=O)[O-])cc1Cl)=N/Nc1ccc([N+](=O)[O-])cc1Cl
inactive: [12] 111 % of control | [13] 109 % of control

COc1ccc(CC(C#N)c2ccc(OC)cc2)cc1 (centres undefined)
inactive: dose: 50.0 mg/kg/injection, schedule: Q01DX009 (ip), vehicle: Klucel (hydroxypropylcellulose) (HPC) 111 % of control and 96 % of control | dose: 100.0 mg/kg/injection, schedule: Q01DX009 (ip), vehicle: Klucel (hydroxypropylcellulose) (HPC) 100 % of control and 96 % of control | dose: 200.0 mg/kg/injection, schedule: Q01DX009 (ip), vehicle: Klucel (hydroxypropylcellulose) (HPC) 99 % of control and 93 % of control

CCCCCCC(=O)/C=C/c1cc(OC)c(OC)cc1OC
inactive: [6] 100 % of control | [7] 94 % of control | [8] 96 % of control

OCCN1C(c2ccccc2)=CN2C=CSC21 (centres undefined)
inactive: [9] 97 % of control | [10] 94 % of control | [11] 97 % of control

CC(=O)OC(OC(C)=O)c1cc(Cl)c(C(OC(C)=O)OC(C)=O)cc1Cl
inactive: dose: 60.0 mg/kg/injection, schedule: Q01DX005 (ip), vehicle: Klucel (hydroxypropylcellulose) (HPC) 107 % of control | dose: 120.0 mg/kg/injection, schedule: Q01DX005 (ip), vehicle: Klucel (hydroxypropylcellulose) (HPC) 106 % of control | dose: 240.0 mg/kg/injection, schedule: Q01DX005 (ip), vehicle: Klucel (hydroxypropylcellulose) (HPC) 103 % of control

[Cl][Ni][Cl].c1ccc2[nH]cnc2c1.c1ccc2[nH]cnc2c1
inactive: dose: 6.25 mg/kg/injection, schedule: Q01DX005 (ip), vehicle: saline with Tween-80 95 % of control | dose: 12.5 mg/kg/injection, schedule: Q01DX005 (ip), vehicle: saline with Tween-80 90 % of control | dose: 25.0 mg/kg/injection, schedule: Q01DX005 (ip), vehicle: saline with Tween-80 92 % of control

O=C(OC(C(=O)O)c1ccccc1)c1ccc([N+](=O)[O-])cc1 (centres undefined)
inactive: dose: 75.0 mg/kg/injection, schedule: Q01DX001 (ip), vehicle: Klucel (hydroxypropylcellulose) (HPC) 89 % of control | dose: 150.0 mg/kg/injection, schedule: Q01DX001 (ip), vehicle: Klucel (hydroxypropylcellulose) (HPC) 103 % of control | dose: 300.0 mg/kg/injection, schedule: Q01DX001 (ip), vehicle: Klucel (hydroxypropylcellulose) (HPC) 95 % of control

C=C(C)C(=O)OC1CC2(C)OC2CCC2(C)OC2C2OC(=O)C(=C)C12 (centres undefined)
inactive: dose: 10.0 mg/kg/injection, schedule: Q01DX005 (ip), vehicle: Klucel (hydroxypropylcellulose) (HPC) 108 % of control | dose: 20.0 mg/kg/injection, schedule: Q01DX005 (ip), vehicle: Klucel (hydroxypropylcellulose) (HPC) 106 % of control | dose: 40.0 mg/kg/injection, schedule: Q01DX005 (ip), vehicle: Klucel (hydroxypropylcellulose) (HPC) 100 % of control

C=C1C2CCC3C(CCC4C35CCC[C@]4(C)CN3CCO[C@H]35)(C2)[C@H]1O (some centres undefined)
inactive: dose: 1.0 mg/kg/injection, schedule: Q01DX009 (ip), vehicle: Klucel (hydroxypropylcellulose) (HPC) 100 % of control | dose: 2.0 mg/kg/injection, schedule: Q01DX009 (ip), vehicle: Klucel (hydroxypropylcellulose) (HPC) 98 % of control | dose: 4.0 mg/kg/injection, schedule: Q01DX009 (ip), vehicle: Klucel (hydroxypropylcellulose) (HPC) 106 % of control | dose: 8.0 mg/kg/injection, schedule: Q01DX009 (ip), vehicle: Klucel (hydroxypropylcellulose) (HPC) 96 % of control

Nc1nccc2c1ncn2C1OC(CO)C(O)C1O (centres undefined)
inactive: dose: 4.67 mg/kg/injection, schedule: Q03HX024 (ip), vehicle: saline with Tween-80 110 % of control | dose: 4.69 mg/kg/injection, schedule: Q03HX024 (ip), vehicle: saline with Tween-80 114 % of control | dose: 9.38 mg/kg/injection, schedule: Q03HX024 (ip), vehicle: saline with Tween-80 111 % of control and 112 % of control | dose: 12.5 mg/kg/injection, schedule: Q01DX009 (ip), vehicle: saline with Tween-80 94 % of control and 97 % of control | dose: 18.75 mg/kg/injection, schedule: Q03HX024 (ip), vehicle: saline with Tween-80 97 % of control | dose: 25.0 mg/kg/injection, schedule: Q01DX009 (ip), vehicle: saline with Tween-80 92 % of control and 93 % of control | dose: 37.5 mg/kg/injection, schedule: Q03HX024 (ip), vehicle: saline with Tween-80 112 % of control and 117 % of control | [7] 88 % of control and 94 % of control | [8] 86 % of control

CC(=O)OC1(C)CC1(C)C (centres undefined)
inactive: [1] 100 % of control | [2] 98 % of control | [3] 98 % of control

CC1=CC(=O)C(O)C2(C)C1CC1OC(=O)C=C3C(C)(C4OC(=O)CC4CO)CC(O)C2C31C (centres undefined)
inactive: dose: 2.5 mg/kg/injection, schedule: Q01DX009 (ip), vehicle: saline + alcohol 92 % of control | dose: 5.0 mg/kg/injection, schedule: Q01DX009 (ip), vehicle: saline + alcohol 98 % of control | dose: 10.0 mg/kg/injection, schedule: Q01DX009 (ip), vehicle: saline + alcohol 108 % of control | dose: 20.0 mg/kg/injection, schedule: Q01DX009 (ip), vehicle: saline + alcohol 101 % of control

CS(=O)(=O)C(CCC(=O)c1ccc2ccccc2c1)C(=O)c1ccccc1 (centres undefined)
inactive: [12] 88 % of control | [13] 89 % of control | dose: 200.0 mg/kg/injection, schedule: Q01DX005 (ip), vehicle: Klucel (hydroxypropylcellulose) (HPC) 92 % of control

Cn1c(=O)cc(NC2OC(CO)C(O)C(O)C2O)[nH]c1=O (centres undefined)
inactive: dose: 60.0 mg/kg/injection, schedule: Q01DX005 (ip), vehicle: saline 97 % of control | dose: 120.0 mg/kg/injection, schedule: Q01DX005 (ip), vehicle: saline 97 % of control | dose: 240.0 mg/kg/injection, schedule: Q01DX005 (ip), vehicle: saline 99 % of control

Reference: PubChem BioAssay AID330 (DTP/NCI, 2004)
